The subject of data set [1] is breast cancer. Kind of data set: Breast cancer patients treated with bevacizumab in the neoadjuvant setting. In kind it is in vivo, human. To be noted: normal weight patients.
For data set [2], the system named is PAN02 tumors. Kind of data set: Orthotopic PAN02 PDAC in lean and obese C57BL/6 mice (5-FU, losartan, TAN depletion, IL-1β inhibition). The format is in vivo, mouse. The note with it: for gene and protein expression of activated PSC marker αSMA: losartan 90 mg/Kg i.p. every day. The source says: (§1) Wild-type (WT) C57BL/6 and FVB male mice were originally obtained from Jackson Laboratory (The Jackson Laboratory, Bar Harbor, Me.) and bred and maintained in our defined-flora colony. KPC (Ptfl-Cre/LSL-KRAS^G12D/p53-R172H) and iKRAS (p48-Cre;R26-rtTa-IRES-EGFP;TetO-Kras^G12D mice) mice were obtained. To generate an obese model, mice (6-week old) were given either 10% or a 60% fat diet (D12450J and D12492, Research Diets, New Brunswick, N.J.) for 10 weeks (or until tumor collection in spontaneous models), as previously described (Surwit, R. S., et al. Metabolism: clinical and experimental 44, 645-651 (1995)). For implanted tumor experiments, AK4.4 cells (KrasG12D and p53 ? /−) were isolated from mice generating spontaneous pancreatic tumors (Ptf1-Cre/LSL-Kras^G12D/p53Lox/ ? ) (Bardeesy, N., et al. Proc Natl Acad SciUSA103, 5947-5952 (2006)). Orthotopic pancreatic tumors were generated by implanting a small piece (1 mm^3) of viable tumor tissue (from a source tumor in a separate animal) into the pancreas of a 6-8 week-old male lean or obese FVB (AK4.4 model) or C57BL/6 (PAN02 model) mouse. PAN02 tumor chunks and AK4.4 cells were authenticated by IDEXX laboratories. (PAN02: IDEXX RADIL Case # 22366-2013. AK4.4: IDEXX RADIL Case #27818-2014). For AT1- and AT2-knockout studies, tumors were implanted into the pancreas of a 6-8-week-old male lean or obese C57BL/ 6, agtr1 a−/− or agtr2−/− mice.
(§2) For all experiments unless specified below, mice bearing orthotropic PAN02 or AK4.4 pancreatic tumors were randomized into treatment groups (or no treatment) and tumors were collected at day 21 after implantation. For tumor growth study with chemotherapy, mice were divided into treatment groups 7 days after implantation, and treated with either 5-FU (30 mg/Kg i.v. every 4 days) or an equal volume of saline by intravenous injection on days 7, 11 and 15 after implantation, with tumors collected at day 19. For tumor growth study with losartan, mice were treated with losartan (90 mg/Kg i.p. every day) or an equal volume of PBS intraperitoneally starting on day 5 after implantation and for the duration of the study. In the combined experiment of losartan and 5-FU, the same protocol was used for each drug as described above. TAN depletion by a Ly6G specific inhibitor (BioExcell, 4 mg/Kg i.p. every 2 days) was administered to PAN02 bearing animals starting at day 1 or day 7, and to AK4.4 bearing animals at day 7. IL-1β inhibition (MM425B, Endogen/Pierce Biotechnology, 2 mg/Kg i.p. every 2 days) was administered to PAN02 bearing animals starting at day 7. At the completion of the study, adipose tissue and tumor samples were collected, weighed, and processed for further analysis. When spontaneous models were used, tumors were collected when palpable.
(§3) Angiotensin inhibitor losartan was obtained as pills, crushed and dissolved in PBS over 24 h. The solution was then sterile filtered for injection. Doxorubicin and 5-FU were obtained as solutions for injection. All drugs were purchased from the pharmacy at Massachusetts General
(§4) To assess obesity-induced ECM remodeling and fibrosis fibrillar collagen accumulation was quantified using second harmonic generation imaging, and collagen-I content, hyaluronan, MMPs levels and fibrosis related signaling pathways (e.g. AT-I, CTGF, TSP1, TGFβ1, and P38/ERK signaling) were measured by rtPCR array, immunohistochemistry and immunoblotting. The topographical distribution and density of cancer-associated fibroblasts (CAFs) in tumor sections was detected by staining for αSMA activated fibroblast marker. Vessel morphology and perfusion was assessed using standard histological analyses.

Data set [3] relates to PAN02 tumors. Put plainly: Delivery of chemotherapy to tumors in lean and obese mice. The note with it: 5-FU 30 mg/kg, 30 min prior to tumor removal, HPLC.
In data set [4] the test system is AK4.4 tumors. Kind of data set: Orthotopic AK4.4 PDAC in lean and obese FVB mice (5-FU, losartan, TAN depletion). The format is in vivo, mouse. The note with it: for response to chemotherapy: losartan with 5-FU.
From the text: as §1, §2, §3, §4

Setting [5] is: lean mice, 3 doses of 5-FU 30 mg/kg BW q4d.
Setting [6] is: obese conditions, 5-FU 30 mg/kg q4d.
Where [7] appears, read: obese mice, losartan monotherapy.
Where [8] appears, read: tumors from lean mice, losartan.
The mark [9] stands for this setting: tumors from obese but not lean mice, losartan.
The mark [10] stands for this setting: tumors from obese mice, losartan.

As for bevacizumab: antibody against VEGF, in data set [1], the tumor hypoxia entry was “acutely increases tumor hypoxia” and the tumor vessels result is recorded as “reduces tumor vessels”.

Regarding `O=c1[nH]cc(F)c(=O)[nH]1` [5-FU, 5-fluorouracil], the “reduction in tumor weight as compared to untreated controls” value in data set [2] (setting [5]) and in data set [4] (setting [5]) was 50% in each case. Moreover, the tumor weight result in data set [2] (setting [6]) and in data set [4] (setting [6]) was “did not significantly reduce tumor weight” throughout. Also, the “delivery of 5-FU to tumors in obese mice versus lean” value in data set [3] is given as “decreased”.

As for `CCCCc1nc(Cl)c(CO)n1Cc1ccc(-c2ccccc2-c2nn[nH]n2)cc1` [losartan], the “gene and protein expression of activated PSC marker αSMA” value is “only mildly” in data set [2] (lean animals); “reduce gene and protein expression” in data set [2] (tumors from obese animals); “only mildly” in data set [4] (lean animals, losartan); “reduce gene and protein expression” in data set [4] (tumors from obese animals, losartan 90 mg/Kg i.p. every day). In addition, the response to chemotherapy result is “improved response to chemotherapy” in data set [2] (obese animals, losartan with 5-FU); “improved response to chemotherapy” in data set [4] (lean setting); “higher magnitude” in data set [4] (obese setting). The “cytokine expression in tumors (multiplex protein)” value in data set [2] (obese mice, losartan) is recorded as “reduced the expression of multiple cytokines including IL-1β”; in data set [4] (obese mice, losartan), “reduced the expression of multiple cytokines including IL-1β”. For the same compound, the tumor weight result in data set [2] (setting [7]) and in data set [4] (setting [7]) was “reduced tumor weight” in each case. In addition, the “gene and protein expression of collagen-I and fibrillar collagen” value is “not lean mice” in data set [2] (setting [8]); “decrease in gene and protein expression of collagen-I as well as fibrillar collagen” in data set [2] (setting [10]); “not lean mice” in data set [4] (setting [8]); “decrease in gene and protein expression of collagen-I as well as fibrillar collagen” in data set [4] (setting [10]). The chemotherapy delivery result in data set [2] (setting [9]) and in data set [4] (setting [9]) was “increase chemotherapy delivery” in each case. In addition, the tumor perfusion result in data set [2] (setting [9]) and in data set [4] (setting [9]) was “tended to improve perfusion” throughout. Further, in data set [4] (lean animals, losartan), the “desmoplasia-related markers and AT1 downstream signaling” value is given as “only modest”. In data set [4] (losartan treatment), the “enrichment for GR(+)F480(-) cells within the CD45 population” value is “tended to decrease the enrichment”. For the same compound, the “enrichment for T regulatory cells within CD4 cells” value in data set [4] (losartan treatment) is listed as “tended to decrease”. For the same compound, in data set [4] (obese mice, losartan), the “desmoplasia-related markers (AT1, TGF-β, SMAD2, vimentin, E-cadherin, snail, MMP9, decorin) and AT1 downstream signaling” value is “normalized the obesity-induced abnormal expression”.

The values are drawn from US20180064662A1 (THE GENERAL HOSPITAL CORPORATION, priority 2015, published 2018).
